Test system: Plasmodium falciparum
Assay: Antiplasmodial activity against Plasmodium falciparum F32-Tanzania after 48 hrs

Structure (SMILES) | IC50
C=Cc1cccc2c3cc4c(cc3c(=O)n(CC)c12)OCO4 | > 100 µM
C=Cc1cccc2c1N(C)Cc1cc(OC(=O)CCCCCCCCCCC)c(OC(=O)CCCCCCCCCCC)cc1-2 | 47 µM
CC(=O)Oc1cc2c(cc1OC(C)=O)[C@@H]1[C@H](O)[C@@H](OC(C)=O)C=C3CCN(C2)[C@H]31 | 8.4 µM
CC(=O)O[C@H]1[C@H]2c3cc4c(cc3C(=O)N3CCC(=C[C@@H]1OC(C)=O)[C@H]23)OCO4 | > 100 µM
C=Cc1cccc2c1N(C)Cc1cc(OC(C)=O)c(OC(C)=O)cc1-2 | 0.9 µM
C=Cc1cccc2c1N(C)Cc1cc(OC)c(OC)cc1-2 | 12.4 µM
CC(=O)Oc1cc2c3c(c1)c1cc4c(cc1c(=O)n3CC2)OCO4 | 9.2 µM
C=Cc1cccc2c1N(CCCC)Cc1cc(OC(C)=O)c(OC(C)=O)cc1-2 | 0.8 µM
CC(=O)O[C@@H]1[C@@H](OC(C)=O)[C@H](O)[C@@]2(O)CCN3C(=O)c4cc5c(cc4[C@H]1[C@H]32)OCO5 | > 100 µM
CC(=O)O[C@H]1[C@H]2c3cc4c(cc3C(=O)N3CCC(=C[C@@H]1O)[C@H]23)OCO4 | > 100 µM
C=Cc1cccc2c3cc4c(cc3c(=O)n(CCCC)c12)OCO4 | > 100 µM
CCC(C)C(=O)O[C@H]1[C@H]2c3cc4c(cc3CN3CCC(=C[C@@H]1OC(=O)C(C)CC)[C@H]23)OCO4 (some centres not stated) | 0.6 µM
C=Cc1cccc2c1N(CCCCCCCCCCC)Cc1cc3c(cc1-2)OCO3 | 7.4 µM
C=Cc1cccc2c1N(C)Cc1cc(O)c(O)cc1-2 | 1.1 µM
C=Cc1cccc2c1N(CCCC)Cc1cc(O)c(O)cc1-2 | > 100 µM
C=Cc1cccc2c3cc4c(cc3c(=O)n(C)c12)OCO4 | > 100 µM
C=Cc1cccc2c1N(CCCC)Cc1cc3c(cc1-2)OCO3 | 9.7 µM
CCc1cccc2c1N(C)Cc1cc3c(cc1-2)OCO3 | > 100 µM
C=Cc1cccc2c1N(C)Cc1cc3c(cc1-2)OCO3 | 11.3 µM
CCCCN1Cc2cc3c(cc2-c2cccc(CC)c21)OCO3 | 7.4 µM
CC(=O)O[C@H]1[C@H]2c3cc4c(cc3CN3CCC(=C[C@@H]1O)[C@H]23)OCO4 | 0.9 µM
C=Cc1cccc2c1N(CC)Cc1cc3c(cc1-2)OCO3 | 86 µM
CC(=O)O[C@H]1[C@H]2c3cc4c(cc3CN3CCC(=C[C@@H]1OC(C)=O)[C@H]23)OCO4 | 0.26 µM
CCC(=O)O[C@H]1[C@H]2c3cc4c(cc3CN3CCC(=C[C@@H]1OC(=O)CC)[C@H]23)OCO4 | 2.7 µM
CC(=O)O[C@H]1[C@H]2c3cc4c(cc3CN3CC[C@@H](C[C@@H]1OC(C)=O)[C@H]23)OCO4 | 34.8 µM
O=C1C=C2CCN3Cc4cc5c(cc4[C@H]([C@@H]1O)[C@@H]23)OCO5 | 14.7 µM
O[C@H]1[C@H]2c3cc4c(cc3CN3CCC(=C[C@@H]1O)[C@H]23)OCO4 [LYCORINE] | 0.13 µM

From ChEMBL document CHEMBL1177653, “Synthesis and antiplasmodial activity of lycorine derivatives” (Bioorg Med Chem, 2010)
